Experimental data as given in US20090196930A1, “AEROSOLIZED NITRITE AND NITRIC OXIDE -DONATING COMPOUNDS AND USES THEREOF” (Aires Pharmaceuticals, Inc., priority 2007, published 2009).
Like-named read-outs stand apart in the source and are kept apart here. Each block holds one compound with its values, some of them ahead of it.

Columns and labels:
[1] = cited from earlier work
[2] = tested on: phenylepherine-induced contractions of aortic rings; assay: Isolated rat aortic ring relaxation
[3] = NAL DPI formulation, monodose DPI device, in vitro; cited from earlier work

Compound: O=S(=O)(O)CCN(CCO)CCO [BES, N,N-Bis(2-hydroxyethyl)-2-aminoethanesulfonic acid]
pKa ([1]; exemplary buffers of Table 2): 7.1

Compound: O=C(O)CNC(CO)(CO)CO [Tricine]
pKa ([1]; exemplary buffers of Table 2): 8.1

Compound: O=S(=O)(O)CCNC1CCCCC1 [CHES, 2-(cyclohexylamino)ethanesulfonic acid]
pKa ([1]; exemplary buffers of Table 2): 9.3

EC50 ([2]; relaxation of phenylephrine-contracted rat aortic rings, read-out: ED50 (the source's name)): 50 nM
Compound: CCCc1nn(C)c2c(=O)[nH]c(-c3cc(S(=O)(=O)N4CCN(C)CC4)ccc3OCC)nc12 [Sildenafil]
reduction in phenylepherine-induced aortic constriction ([2]; 50 nM sildenafil): ~50%

Compound: O=S(=O)(O)CC(O)CNC(CO)(CO)CO (centres unmarked) [TAPSO, 2-hydroxy-3-[tris(hydroxymethyl)methylamino]-1-propanesulfonic acid]
pKa ([1]; exemplary buffers of Table 2): 7.6

Compound: NC(=O)CN(CC(=O)O)CC(=O)O [ADA, N-(2-ametamino)iminodiacetic acid]
pKa ([1]; exemplary buffers of Table 1): 6.60
pKa ([1]; exemplary buffers of Table 2): 6.6

Compound: L-lysine-N-acetylcysteinate [NAL]
fine particle fraction (FPF) of the nominal dose [3]: at least 30%

Compound: OCC(CO)(CO)NCCCNC(CO)(CO)CO [BIS-TRIS Propane, 1,3-Bis[tris(hydroxymethyl)methylamino]propane]
pKa ([1]; exemplary buffers of Table 2): 6.8

Compound: O=S(=O)(O)CCCN1CCN(CCO)CC1 [EPPS, N-(2-hydroxyethyl)piperazine-N′-(3-propanesulfonic acid)]
pKa ([1]; exemplary buffers of Table 2): 8.0

Compound: O=S(=O)(O)CCN1CCN(CCS(=O)(=O)O)CC1 [PIPES, Piperazine-N,N′-bis(2-ethanesulfonic acid)]
pKa ([1]; exemplary buffers of Table 1): 6.76
pKa ([1]; exemplary buffers of Table 2): 6.8

Compound: CC(C)(CO)NCC(O)CS(=O)(=O)O (centres unmarked) [AMPSO, N-(1,1-dimethyl-2-hydroxyethyl)-3-amino-2-hydroxypropane-sulfonic acid]
pKa ([1]; exemplary buffers of Table 2): 9.0
